The results in this text go back to US20170240511A1 (MERCK SHARP & DOHME CORP., priority 2014, published 2017).

The target of the assay is T1, Human HIF-PHD2 (Homo sapiens, UniProt Q9GZT9).
T1 construct: FLAG-tagged full length PHD2 expressed in and purified from baculovirus-infected Sf9 cells; FLAG; made in house; host or cells: baculovirus-infected Sf9 cells
Put plainly: HIF-PHD2 inhibition assay: time resolved fluorescence detection of HIF peptide hydroxylation. In kind it is biochemical. As to conditions: FLAG-tagged full length PHD2; 0.2 μM 2-oxoglutarate, 0.5 μM HIF-1α peptide; 45 minutes at room temperature. As to the method:
To each well of a 384-well plate, 1 μL of test compounds in DMSO (final concentration ranging from 0.3 nM to 10 μM) were added into 20 μl of assay buffer (50 mM Tris pH 7.4/0.01% Tween-20/0.1 mg/ml bovine serum albumin/10 μM ferrous sulfate/1 mM sodium ascorbate/20 μg/ml catalase) containing 0.15 μg/ml FLAG-tagged full length PHD2 expressed in and purified from baculovirus-infected Sf9 cells. After a 5 min preincubation at room temperature, the enzymatic reactions were initiated by the addition of 4 μL of substrates final concentrations of 0.2 μM 2-oxoglutarate and 0.5 μM HIF-la peptide biotinyl-[…] […] After incubation for 45 minutes at room temperature, the reactions were terminated by the addition of a 25 μL quench/detection mix to a final concentration of 1 mM ortho-phenanthroline, 0.1 mM EDTA, 0.5 nM anti-(His)6 LANCE reagent (Perkin-Elmer Life Sciences), 100 nM AF647-labeled streptavidin (Invitrogen), and 2 μg/ml (His)6-VHL complex {S. Tan Protein Expr. Purif. […] Inhibition of the catalytic activity of HIF-PHD1 and HIF-PHD3 can be determined similarly, except for HIF-PHD3, final concentrations of 4 μM 2-oxoglutarate is used during the reaction.

T1 sequence (Q9GZT9 whole entry): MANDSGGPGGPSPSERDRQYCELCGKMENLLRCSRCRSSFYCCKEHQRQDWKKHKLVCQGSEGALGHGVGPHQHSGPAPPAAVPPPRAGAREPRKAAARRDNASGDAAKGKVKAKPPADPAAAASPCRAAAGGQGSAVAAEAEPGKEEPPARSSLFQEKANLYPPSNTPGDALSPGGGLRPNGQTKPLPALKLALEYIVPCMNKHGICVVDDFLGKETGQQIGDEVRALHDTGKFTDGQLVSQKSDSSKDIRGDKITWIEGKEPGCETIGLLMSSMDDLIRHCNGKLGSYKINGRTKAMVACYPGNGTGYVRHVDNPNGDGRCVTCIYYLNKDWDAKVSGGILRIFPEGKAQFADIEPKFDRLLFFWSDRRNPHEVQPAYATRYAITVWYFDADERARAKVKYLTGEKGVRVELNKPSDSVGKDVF

For the compound `O=C(O)c1cnn(-c2cc(O)c(C(=O)NC(c3ccccc3)c3ccccc3)cn2)c1` [Example 1, 1-(5-(Benzhydrylcarbamoyl)-4-hydroxypyridin-2-yl)-1H-pyrazole-4-carboxylic acid], the IC50 came to 0.875 nM.

As to `CCOC(=O)CCNC(=O)c1cc(O)c(C(=O)NC(c2ccccc2)c2ccccc2)cn1` [Example 2, ethyl 3-(5-(benzhydrylcarbamoyl)-4-hydroxypicolinamido)propanoate], the midpoint of inhibition, the IC50, lay at 92.9 nM.

For `COC(=O)C(C)CNC(=O)c1cc(O)c(C(=O)NC(c2ccccc2)c2ccccc2)cn1` (stereo not shown) [Example 3, methyl 3-(5-(benzhydrylcarbamoyl)-4-hydroxypicolinamido)-2-methylpropanoate], the IC50 came to 136 nM.

Consider `O=C(N[C@H]1C[C@H](C(=O)O)C1)c1cc(O)c(C(=O)NC(c2ccccc2)c2ccccc2)cn1` [Example 3], for which the concentration for half-maximal inhibition (IC50) came out at 1.64 nM.

With `CCOC(=O)C1(CNC(=O)c2cc(O)c(C(=O)NC(c3ccc(Cl)cc3)c3ccc(Cl)cc3)cn2)CC1` [Example 5, ethyl 1-((5-((bis(4-chlorophenyl)methyl)carbamoyl)-4-hydroxypicolinamido)methyl) cyclopropanecarboxylate], the midpoint of inhibition, the IC50, lay at 184 nM.

`CCOC(=O)C(C)(C)CNC(=O)c1cc(O)c(C(=O)NC(c2ccccc2)c2ccccc2)cn1` [Example 5, ethyl 3-(5-(benzhydrylcarbamoyl)-4-hydroxypicolinamido)-2,2-dimethylpropanoate]: half-maximal inhibition (IC50) was put at 276 nM.

As for `CCOC(=O)[C@H]1C[C@@H]1NC(=O)c1cc(O)c(C(=O)NC(c2ccccc2)c2ccccc2)cn1` [Example 6, (1S,2S)-ethyl 2-(5-(benzhydrylcarbamoyl)-4-hydroxypicolinamido)cyclopropanecarboxylate], 89.1 nM corresponded to half-maximal inhibition (IC50).

`CCOC(=O)[C@@H]1C[C@H]1NC(=O)c1cc(O)c(C(=O)NC(c2ccccc2)c2ccccc2)cn1` [Example 7, (1R,2R)-ethyl 2-(5-(benzhydrylcarbamoyl)-4-hydroxypicolinamido)cyclopropanecarboxylate] had an IC50 of 37.3 nM.

On to `CC(CNC(=O)c1cc(O)c(C(=O)NC(c2ccccc2)c2ccccc2)cn1)C(=O)O` (stereo not shown) [Example 10, 3-(5-(benzhydrylcarbamoyl)-4-hydroxypicolinamido)-2-methylpropanoic acid], for which the IC50 turned out to be 1.89 nM.

Take `O=C(NCC1(C(=O)O)CC1)c1cc(O)c(C(=O)NC(c2ccccc2)c2ccccc2)cn1` [Example 11, 1-((5-(benzhydrylcarbamoyl)-4-hydroxypicolinamido)methyl)cyclopropanecarboxylic acid]: the IC50 came out at 5.24 nM.

For the compound `O=C(O)CCCNC(=O)c1cc(O)c(C(=O)NC(c2ccccc2)c2ccccc2)cn1` [Example 12, 4-(5-(benzhydrylcarbamoyl)-4-hydroxypicolinamido)butanoic acid], it took 1.02 nM to reach half-maximal inhibition (IC50).

`O=C(NCC(O)C(=O)O)c1cc(O)c(C(=O)NC(c2ccccc2)c2ccccc2)cn1` (stereo not shown) [Example 13, 3-(5-(benzhydrylcarbamoyl)-4-hydroxypicolinamido)-2-hydroxypropanoic acid]: inhibition was half-maximal at 1.28 nM (IC50).

Compound `CC(C)(CNC(=O)c1cc(O)c(C(=O)NC(c2ccccc2)c2ccccc2)cn1)C(=O)O` [Example 14, 3-(5-(benzhydrylcarbamoyl)-4-hydroxypicolinamido)-2,2-dimethylpropanoic acid] had an IC50 of 3.61 nM.

The compound `O=C(N[C@H]1C[C@@H]1C(=O)O)c1cc(O)c(C(=O)NC(c2ccccc2)c2ccccc2)cn1` [Example 15, (1S,2S)-2-(5-(benzhydrylcarbamoyl)-4-hydroxypicolinamido)cyclopropanecarboxylic acid] showed a half-inhibitory concentration (IC50) of 6.69 nM.

The compound `O=C(N[C@@H]1C[C@H]1C(=O)O)c1cc(O)c(C(=O)NC(c2ccccc2)c2ccccc2)cn1` [Example 16, (1R,2R)-2-(5-(benzhydrylcarbamoyl)-4-hydroxypicolinamido)cyclopropanecarboxylic acid] returned an IC50 of 6.55 nM.

Regarding `O=C(NC12CC(C(=O)O)(C1)C2)c1cc(O)c(C(=O)NC(c2ccccc2)c2ccccc2)cn1` [Example 17, 3-(5-(benzhydrylcarbamoyl)-4-hydroxypicolinamido)bicyclo[1.1.1]pentane-1-carboxylic acid], the IC50 was found to be 23.4 nM.

As usually defined, the IC50 is the concentration at which inhibition is half-maximal. Higher therefore signals weaker potency.
